Tests used:
[1] = target: T1, NanoLuc-USP7 and HaloTag-VHL (Homo sapiens, UniProt P40337+Q93009); assay: Cellular ternary complex formation assay (NanoBRET), HEK293T cells; format: cell-based; conditions: for Ternary complex induction (in words): NanoBRET
T1 construct: expressed in transfected cells; host or cells: HEK293T, transient transfection (FuGENE HD)
Method: The assay was performed as described step-by-step elsewhere. USP7 (NanoLuc-USP7) and VHL (HaloTag-VHL) were cloned in frame with N-terminal NanoLuc or HaloTag, respectively. For transfections, HEK293T cells were diluted in Opti-MEM medium without phenol red (Life Technologies) to 4×10^5 cells/mL and 9 µL were pipetted into each well of a white 384-well plate (Greiner 781207). 1 mL transfection mix was prepared containing 30 µL FuGENE HD (Promega, E2312) and 8 µL of each plasmid, incubated 20 min at RT and 1 µL were pipetted into each well leading to the total assay volume of 10 µL. […] 2 h prior to BRET measurements, the compounds were titrated to the cells using an Echo acoustic dispenser and the cells were incubated further at 37 °C and 5% CO2 to allow complex formation. NanoBRET Nano-Glo substrate and Extracellular NanoLuc Inhibitor (Promega, N2540) were then added as per the manufacturer’s protocol, and filtered luminescence was recorded on a PHERAstar FSX plate reader (BMG Labtech) equipped with a luminescence filter pair (donor: 450 nm BP filter; acceptor: 610 nm LP filter). Data were analyzed using GraphPad Prism 10 software.

[2] = tested on: Panc89 cells; assay: Total proteome analysis, DIA mass spectrometry, Panc89 cells; format: cell-based, H. sapiens; conditions: DIA Panc89, 1 µM
Method: (§1) Following treatment, cells were harvested, washed twice with PBS, and pellets were flash frozen in liquid nitrogen before being stored at −80 °C. Samples were prepared using the single-pot, solid-phase-enhanced sample-preparation (SP3) strategy. All buffers and solutions were prepared with mass spectrometry (MS)-grade water (Honeywell). Cell pellets were taken up in 100 µL 1x sample buffer (50 mM Hepes pH 8.0, 1% (wt/v) SDS, 1% (v/v) NP-40, 10 mM TCEP, 40 mM chloroacetamide) and samples were heated at 90 °C for 5 min prior to sonication with a Bioruptor UCD-300 (Diagenode) for ten cycles of 1 min pulse and 30 s pause at high power. The samples were then supplemented with Benzonase (20 U/sample) and sonified for 5 min in a water bath (Bandelin) followed by 30 min incubation at […].
The protein extracts were then centrifuged (20000 ×g, RT, 40 min) and the protein concentration of the cleared lysates was determined using the Pierce 660 nm Protein Assay Reagent (#22660; Thermo Scientific) with the Ionic Detergent Compatibility Reagent (#22663; Thermo Scientific) according to the manufacturers’ instructions. Next, 15 µg of total protein per sample in a volume of 100 µL sample buffer was transferred to a 500 µL 96-well plate and treated with 7 U of benzonase (#71206; Merck Millipore) in dilution buffer (20 mM Hepes pH 8.0, 2 mM MgCl2) at 37 °C for 30 min with agitation at 1500 rpm. […]

[3] = tested on: Ma-Mel-47 cells; assay: Total proteome analysis, DIA mass spectrometry, Ma-Mel-47 cells; format: cell-based, H. sapiens; conditions: DIA Ma-Mel-47, 1 µM
Method: as §1
(§2) The protein extracts were then centrifuged (20000 ×g, RT, 40 min) and the protein concentration of the cleared lysates was determined using the Pierce 660 nm Protein Assay Reagent (#22660; Thermo Scientific) with the Ionic Detergent Compatibility Reagent (#22663; Thermo Scientific) according to the manufacturers’ instructions. Next, 15 µg of total protein per sample in a volume of 100 µL sample buffer was transferred to a 500 µL 96-well plate and treated with 7 U of benzonase (#71206; Merck Millipore) in dilution buffer (20 mM Hepes pH 8.0, 2 mM MgCl2) at 37 °C for 30 min with agitation at 1500 rpm. After Benzonase treatment samples were heated to 90 °C for 5 min and after cooling down to room temperature, iodoacetamide to a final concentration of 10 mM was added for complete alkylation of cysteines (37 °C, 15 min, 1000 rpm, in the dark).
(§3) Then, 3 µL of a 50 µg/µL 1:1 mixture of hydrophilic (#45152105050250) and hydrophobic (#65152105050250) carboxylate modified Sera-Mag SpeedBeads (Cytiva), that were washed twice with MS-grade water, were added to the samples. The next steps were carried out at room temperature unless noted otherwise. Afterwards, the samples were mixed shortly (1 min, 1000 rpm) and collected by short centrifugation (10 s, 200 ×g). […]

[4] = tested on: Panc89 cells; assay: Total proteome analysis, DDA mass spectrometry, Panc89 cells; format: cell-based, H. sapiens; conditions: DDA Panc89, 1 µM
Method: as §1, §2, §3

[5] = target: T2, USP7 (Homo sapiens, UniProt Q93009); assay: Immunofluorescence staining of USP7, Panc89 cells; format: cell-based; conditions: Panc89, 1 µM, 24 h
T2 construct: allowed the analysis of endogenous USP7 degradation in both cell lines; endogenous in cells; host or cells: Panc89 (PDAC) and Ma-Mel-47 (melanoma) cells
Method: Panc89 cells were seeded on 96-well plates (89626, Ibidi) and treated with either DMSO or compound for the indicated time and concentration. Cells were then fixed with 4% PFA in PBS for 20 min, permeabilized with 0.1% Triton X-100 in PBS for 10 min and incubated in blocking buffer containing 2% BSA in PBS for 1 h. Three 10 min washes with PBS were performed between different steps. Cells were treated with primary antibody anti-USP7 (ab190183, Abcam, rabbit, 1:500) in blocking solution for 1 h at RT. […] Finally, cells were stained with DAPI (Invitrogen, 1 µg/mL) in PBS for 10 min and mounted with aqueous mounting medium (50001, Ibidi) for microscopy. Plates were imaged on a fully automated inverted EVOS M7000 microscope system (Invitrogen) with X-Apo 20x air objective (0.8 NA, Olympus, AMEP4906) using DAPI (AMEP4950), GFP (AMEP4951), RFP (AMEP4952), and Cy5 (AMEP4956) LED light cubes. Images were captured using a high-sensitivity 3.2 MP monochrome CMOS camera and were processed with Omero (v. web 5.28.0).

[6] = tested on: Panc89 cells; assay: Confluence measurement (cell growth), Panc89; format: cell-based, human; conditions: Panc89, 1-10 µM, 72 h, 25 mM or 5 mM D-glucose

T1 sequence (Q93009 whole entry): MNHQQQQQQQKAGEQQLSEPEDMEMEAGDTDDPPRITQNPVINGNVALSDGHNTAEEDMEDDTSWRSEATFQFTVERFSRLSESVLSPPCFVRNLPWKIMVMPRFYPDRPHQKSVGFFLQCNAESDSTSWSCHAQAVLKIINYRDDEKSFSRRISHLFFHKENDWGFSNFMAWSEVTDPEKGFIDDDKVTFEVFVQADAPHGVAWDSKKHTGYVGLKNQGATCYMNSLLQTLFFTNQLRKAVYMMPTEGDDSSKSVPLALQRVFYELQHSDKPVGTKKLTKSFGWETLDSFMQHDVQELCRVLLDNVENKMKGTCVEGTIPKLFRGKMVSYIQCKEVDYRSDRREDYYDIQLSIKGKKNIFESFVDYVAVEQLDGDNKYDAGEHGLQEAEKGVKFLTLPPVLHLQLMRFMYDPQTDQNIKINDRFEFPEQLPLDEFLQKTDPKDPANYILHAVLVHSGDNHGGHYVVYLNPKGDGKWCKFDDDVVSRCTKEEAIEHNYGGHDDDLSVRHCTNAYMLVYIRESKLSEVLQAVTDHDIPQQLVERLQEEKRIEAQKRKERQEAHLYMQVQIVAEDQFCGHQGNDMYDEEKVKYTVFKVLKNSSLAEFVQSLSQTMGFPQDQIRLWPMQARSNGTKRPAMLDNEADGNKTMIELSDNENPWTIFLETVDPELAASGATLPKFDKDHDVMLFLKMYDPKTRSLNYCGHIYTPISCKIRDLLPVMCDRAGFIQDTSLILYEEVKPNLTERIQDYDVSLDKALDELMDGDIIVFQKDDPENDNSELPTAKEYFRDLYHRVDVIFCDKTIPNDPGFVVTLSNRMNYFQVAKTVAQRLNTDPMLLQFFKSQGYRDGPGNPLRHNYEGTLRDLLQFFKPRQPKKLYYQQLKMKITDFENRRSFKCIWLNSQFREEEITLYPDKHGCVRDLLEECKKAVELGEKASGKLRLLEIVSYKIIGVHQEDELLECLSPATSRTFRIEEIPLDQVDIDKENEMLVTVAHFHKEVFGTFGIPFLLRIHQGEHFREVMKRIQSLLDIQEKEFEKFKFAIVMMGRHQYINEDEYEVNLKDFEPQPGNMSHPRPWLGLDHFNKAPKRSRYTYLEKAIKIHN
T1 sequence (P40337 whole entry): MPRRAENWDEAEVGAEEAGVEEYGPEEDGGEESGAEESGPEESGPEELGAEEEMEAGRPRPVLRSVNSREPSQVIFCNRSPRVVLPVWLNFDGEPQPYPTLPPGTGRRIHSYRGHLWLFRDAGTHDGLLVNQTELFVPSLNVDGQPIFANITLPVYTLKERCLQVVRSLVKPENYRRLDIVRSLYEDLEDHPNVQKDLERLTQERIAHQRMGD
T1 sequence (Q15370 whole entry partner): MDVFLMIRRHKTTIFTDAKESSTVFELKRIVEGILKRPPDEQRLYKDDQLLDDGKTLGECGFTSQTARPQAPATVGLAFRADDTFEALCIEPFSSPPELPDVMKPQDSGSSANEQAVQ
T1 sequence (Q15369 whole entry partner): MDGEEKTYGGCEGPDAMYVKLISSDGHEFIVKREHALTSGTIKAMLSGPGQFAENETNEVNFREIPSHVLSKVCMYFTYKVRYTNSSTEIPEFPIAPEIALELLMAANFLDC
T2 sequence (Q93009 whole entry): as the sequence (Q93009 whole entry) above

Cc1ncsc1-c1ccc(CNC(=O)[C@@H]2C[C@H](O)CN2C(=O)[C@@H](NC(=O)[C@H]2CC[C@H](C(=O)N3CCN(c4ccc(-n5ncc6c(=O)n(CC7(O)CCN(C(=O)C[C@@H](C)c8ccccc8)CC7)cnc65)cc4)CC3)CC2)C(C)(C)C)cc1 [NK245]
Ternary complex induction (in words) [1]: neither the negative control NK245 nor the VHL ligand VH298 induced a ternary complex
Changes to the proteome (in words) ([2]; 72 h): only showed minimal changes to the proteome
Changes to the proteome (in words) ([3]; 72 h): only showed minimal changes to the proteome

Cc1ncsc1-c1ccc([C@H](C)NC(=O)[C@@H]2C[C@@H](O)CN2C(=O)[C@@H](NC(=O)[C@H]2CC[C@H](C(=O)N3CCN(c4ccc(-n5ncc6c(=O)n(CC7(O)CCN(C(=O)C[C@@H](C)c8ccccc8)CC7)cnc65)cc4)CC3)CC2)C(C)(C)C)cc1 [NK250]
EC50 ([1]; compound 2 h prior BRET measurement, read-out: EC50 (half-maximal ternary complex formation concentration)): 58 nM
Proteins significantly decreased (in words) ([2]; 6 h): USP7 was the only protein that was significantly decreased
Proteins significantly decreased (in words) ([4]; 6 h): USP7 was the only protein significantly decreased
Reduction of USP7 protein levels ([4]; after three days): more than 100 fold
USP7 immunofluorescence signal (in words) [5]: strongly reduced
Cell growth (in words) [6]: not affected

Cc1ncsc1-c1ccc([C@H](C)NC(=O)[C@@H]2C[C@@H](O)CN2C(=O)[C@@H](NC(=O)C23C4C5C2C2C3C4C52C(=O)N2CCC(C3CCN(c4ccc(-n5ncc6c(=O)n(CC7(O)CCN(C(=O)C[C@@H](C)c8ccccc8)CC7)cnc65)cc4)CC3)CC2)C(C)(C)C)cc1 (stereo partly drawn) [NK266]
Ternary complex induction (in words) [1]: did not increase the BRET signal to the same level
USP7 protein level change (in words) ([3]; 6 h): only minimal reduction
USP7 protein level change (in words) ([3]; 24 h): the most decreased protein

— PMC13172357 (Nature Communications, 2026)
